Laboratory results as given in paper PMC3297713 (Journal of Medicinal Chemistry, 2012).

How the values were obtained:
[1] = target: T1, full-length human ERα (Homo sapiens, UniProt P03372); test: 3X-ERE luciferase reporter gene assay in HepG2 cells, ERα; assay type: cell-based
T1 sequence (P03372 1-595): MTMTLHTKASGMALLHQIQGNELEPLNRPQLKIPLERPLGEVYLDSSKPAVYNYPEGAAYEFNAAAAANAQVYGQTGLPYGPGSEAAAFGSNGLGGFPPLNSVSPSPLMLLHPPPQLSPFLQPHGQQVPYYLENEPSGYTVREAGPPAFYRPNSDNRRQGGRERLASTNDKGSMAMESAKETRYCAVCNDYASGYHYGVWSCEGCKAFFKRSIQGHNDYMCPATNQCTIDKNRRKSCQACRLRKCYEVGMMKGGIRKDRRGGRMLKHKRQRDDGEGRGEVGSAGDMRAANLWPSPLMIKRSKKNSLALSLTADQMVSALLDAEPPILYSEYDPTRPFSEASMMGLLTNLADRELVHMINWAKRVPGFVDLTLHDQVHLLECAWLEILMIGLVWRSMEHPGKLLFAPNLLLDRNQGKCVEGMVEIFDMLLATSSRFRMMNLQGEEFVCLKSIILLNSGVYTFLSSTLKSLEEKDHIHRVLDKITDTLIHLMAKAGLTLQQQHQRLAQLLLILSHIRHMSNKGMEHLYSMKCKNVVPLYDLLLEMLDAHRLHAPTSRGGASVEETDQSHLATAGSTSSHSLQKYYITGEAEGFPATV

[2] = target: full-length human ERβ (Homo sapiens, UniProt Q92731); test: 3X-ERE luciferase reporter gene assay in HepG2 cells, ERβ; assay type: cell-based
full-length human ERβ, sequence (Q92731 whole entry): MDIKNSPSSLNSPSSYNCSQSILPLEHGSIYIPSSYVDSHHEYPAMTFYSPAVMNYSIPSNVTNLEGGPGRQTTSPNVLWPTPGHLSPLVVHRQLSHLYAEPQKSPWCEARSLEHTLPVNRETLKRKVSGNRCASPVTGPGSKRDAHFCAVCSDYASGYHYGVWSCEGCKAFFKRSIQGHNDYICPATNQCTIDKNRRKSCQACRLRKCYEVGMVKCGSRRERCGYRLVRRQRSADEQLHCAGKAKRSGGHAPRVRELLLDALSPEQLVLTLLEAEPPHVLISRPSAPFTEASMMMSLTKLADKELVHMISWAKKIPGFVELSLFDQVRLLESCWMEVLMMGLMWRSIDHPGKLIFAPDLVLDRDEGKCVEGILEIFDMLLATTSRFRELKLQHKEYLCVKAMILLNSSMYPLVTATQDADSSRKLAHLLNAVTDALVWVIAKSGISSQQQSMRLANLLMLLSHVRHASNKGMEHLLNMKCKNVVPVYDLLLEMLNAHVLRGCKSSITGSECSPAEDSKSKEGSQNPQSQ

For `O=S(=O)(Oc1ccccc1)[C@H]1C[C@H]2C(c3ccc(O)cc3)=C(c3ccc(O)cc3)[C@@H]1[S+]2[O-]` (relative stereo) [Compound 10a], the “ERα functional profile (in words)” value [1] was “lacks ERα antagonist activity”, the EC50 [2] was > 10 µM and the “ERβ agonist activity (in words)” value [2] was “do not activate ERβ”.
In the case of `COc1ccc(OS(=O)(=O)[C@H]2C[C@H]3C(c4ccc(O)cc4)=C(c4ccc(O)cc4)[C@@H]2[S+]3[O-])cc1` (relative stereo) [Compound 10b], the EC50 [1] is reported as > 10 µM and the EC50 [2] is reported as > 10 µM.
In the case of `O=S(=O)(Oc1ccc(O)cc1)[C@H]1C[C@H]2C(c3ccc(O)cc3)=C(c3ccc(O)cc3)[C@@H]1[S+]2[O-]` (relative stereo) [Compound 10c], the EC50 [2] is reported as > 10 µM.
For `CCOC(=O)[C@@H]1[C@H](C(=O)OCC)[C@@H]2C(c3ccc(O)cc3)=C(c3ccc(O)cc3)[C@H]1[S+]2[O-]` (relative stereo) [Compound 10e], the EC50 [1] was > 10 µM and the EC50 [2] was > 10 µM.
In the case of `COc1ccc(OS(=O)(=O)[C@H]2C[C@H]3C(c4ccc(O)cc4C)=C(c4ccc(O)cc4C)[C@@H]2[S+]3[O-])cc1` (relative stereo) [Compound 11b], the EC50 [2] is reported as > 10 µM.
`Cc1cc(O)ccc1C1=C(c2ccc(O)cc2C)[C@H]2[C@@H](S(=O)(=O)Oc3ccccc3F)C[C@@H]1[S+]2[O-]` (relative stereo) [Compound 11c] was tested, and the EC50 [2] was > 10 µM.
`Cc1cc(O)ccc1C1=C(c2ccc(O)cc2C)[C@H]2[C@@H](S(=O)(=O)Oc3ccccc3Br)C[C@@H]1[S+]2[O-]` (relative stereo) [Compound 11e] was tested, and the EC50 [2] was > 10 µM.
`Cc1cc(O)ccc1C1=C(c2ccc(O)cc2C)[C@H]2[C@@H](S(=O)(=O)Oc3ccc(F)cc3)C[C@@H]1[S+]2[O-]` (relative stereo) [Compound 11f] was tested, and the EC50 [2] was > 10 µM.
`Cc1cc(O)ccc1C1=C(c2ccc(O)cc2C)[C@H]2[C@@H](S(=O)(=O)Oc3ccc(Cl)cc3)C[C@@H]1[S+]2[O-]` (relative stereo) [Compound 11g] was tested, and the EC50 [2] was > 10 µM.
For `Cc1cc(O)ccc1C1=C(c2ccc(O)cc2C)[C@H]2[C@@H](S(=O)(=O)Oc3cccc4ccccc34)C[C@@H]1[S+]2[O-]` (relative stereo) [Compound 11j], the EC50 [2] was > 10 µM.
With `Cc1cc(C2=C(c3ccc(O)c(C)c3)[C@H]3[C@@H](S(=O)(=O)Oc4ccccc4)C[C@@H]2[S+]3[O-])ccc1O` (relative stereo) [Compound 12a] the EC50 [2] was > 10 µM.
In the case of `COc1ccc(OS(=O)(=O)[C@H]2C[C@H]3C(c4ccc(O)c(C)c4)=C(c4ccc(O)c(C)c4)[C@@H]2[S+]3[O-])cc1` (relative stereo) [Compound 12b], the EC50 [2] is reported as > 10 µM.
`Cc1cc(C2=C(c3ccc(O)c(C)c3)[C@H]3[C@@H](S(=O)(=O)Oc4ccccc4F)C[C@@H]2[S+]3[O-])ccc1O` (relative stereo) [Compound 12c] was tested, and the EC50 [2] was > 10 µM.
For `Cc1cc(C2=C(c3ccc(O)c(C)c3)[C@H]3[C@@H](S(=O)(=O)Oc4ccccc4Cl)C[C@@H]2[S+]3[O-])ccc1O` (relative stereo) [Compound 12d], the EC50 [2] was > 10 µM.
In the case of `Cc1cc(C2=C(c3ccc(O)c(C)c3)[C@H]3[C@@H](S(=O)(=O)Oc4ccccc4Br)C[C@@H]2[S+]3[O-])ccc1O` (relative stereo) [Compound 12e], the EC50 [2] is reported as > 10 µM.
For `Cc1cc(C2=C(c3ccc(O)c(C)c3)[C@H]3[C@@H](S(=O)(=O)Oc4cccc5ccccc45)C[C@@H]2[S+]3[O-])ccc1O` (relative stereo) [Compound 12f], the EC50 [2] was > 10 µM.
For `CCOC(=O)[C@@H]1[C@H](C(=O)OCC)[C@@H]2C(c3ccc(O)c(C)c3)=C(c3ccc(O)c(C)c3)[C@H]1[S+]2[O-]` (relative stereo) [Compound 12i], the EC50 [1] was > 10 µM and the EC50 [2] was > 10 µM.
For `O=S(=O)(Oc1ccc(O)cc1)[C@H]1C[C@H]2C(c3ccccc3)=C(c3ccccc3)[C@@H]1[S+]2[O-]` (relative stereo) [Compound 13], the EC50 [1] was > 10 µM and the EC50 [2] was > 10 µM.
For `Cc1ccc(C2=C(c3ccc(C)cc3)[C@H]3[C@@H](S(=O)(=O)Oc4ccc(O)cc4)C[C@@H]2[S+]3[O-])cc1` (relative stereo) [Compound 14], the EC50 [2] was > 10 µM.
